Measurements reported in ChEMBL document CHEMBL1134882, “Preparation of chiral 4-benzyloxymethyldihydrofuran-2-one using lipase-catalyzed kinetic resolution: synthesis of (-)-virginiae butanolide C (VB C)” (Bioorg Med Chem Lett, 2002).
Values joined by “and” are separate entries in the source; they are usually repeats but may differ in a detail not shown here. Equal values may be shown once.

Assays:
Burkholderia cepacia [1] = test: Kinetic resolution by Lipase PS from Pseudomonas cepacia, catalyzed acylation by using Phenyl acetate
Burkholderia cepacia [2] = test: Kinetic resolution by Lipase PS from Pseudomonas cepacia, catalyzed acylation by using Isopropenyl acetate
Burkholderia cepacia [3] = test: Kinetic resolution by Lipase PS from Pseudomonas cepacia, catalyzed acylation by using Succinic anhydride
Burkholderia cepacia [4] = test: Kinetic resolution by Lipase PS from Pseudomonas cepacia, catalyzed acylation by using Vinyl acetate

TIME (Burkholderia cepacia [1])	TIME (Burkholderia cepacia [2])	TIME (Burkholderia cepacia [3])	TIME (Burkholderia cepacia [4])	SMILES
3 h and 2 h	9 h	4 h	2 h	CCN(CC)C(=O)C[C@H](CO)COCc1ccccc1
1 h	–	5 h	–	CCNC(=O)C[C@@H](CO)COCc1ccccc1
10 h	–	–	–	O=C(C[C@@H](CO)COCc1ccccc1)NCc1ccccc1
2 h	–	8 h	–	CN(C)C(=O)C[C@H](CO)COCc1ccccc1
12 h	–	–	–	CNC(=O)C[C@@H](CO)COCc1ccccc1
